In ChEMBL document CHEMBL3885881, “DrugMatrix”:

Organism: Rattus norvegicus
Assay: DrugMatrix - Regimen: Daily Repeat
Type: toxicity, organism-based, Sprague-Dawley
Parameters: regimen Daily Repeat, gender Male, age 6-8 weeks
Conditions: in vivo, po, route oral GAVAGE, vehicle .5 % CMC; for ABSOLUTE BASOPHIL / ABSOLUTE EOSINOPHIL / ABSOLUTE LYMPHOCYTE / ABSOLUTE MONOCYTE / ABSOLUTE SEGMENTED NEUTROPHIL / BASOPHIL / EOSINOPHIL / ERYTHROCYTE COUNT / HEMATOCRIT / HEMOGLOBIN / LEUKOCYTE COUNT / LYMPHOCYTE / MEAN CORPUSCULAR HEMOGLOBIN / MEAN CORPUSCULAR HEMOGLOBIN CONCENTRATION / MEAN CORPUSCULAR VOLUME / MONOCYTE / NEUTROPHIL / NUCLEATED RED BLOOD CELLS / PLATELET COUNT: tissue Blood; for ALANINE AMINOTRANSFERASE / ALBUMIN / ALKALINE PHOSPHATASE / ASPARTATE AMINOTRANSFERASE / BLOOD UREA NITROGEN / CARBON DIOXIDE / CHLORIDE / CHOLESTEROL / CREATINE PHOSPHOKINASE / CREATININE / GLUCOSE / LACTATE DEHYDROGENASE / LIPASE / PHOSPHORUS / POTASSIUM / SODIUM / TOTAL BILIRUBIN / TOTAL PROTEIN / URIC ACID: tissue Plasma
[1] = 1 mg/kg, 72 h, dose level Low, time 3 day
[2] = 1 mg/kg, 120 h, dose level Low, time 5 day
[3] = 68 mg/kg, 72 h, dose level High, time 3 day
[4] = 68 mg/kg, 120 h, dose level High, time 5 day

C[C@]12C=CC(=O)C=C1CC[C@@H]1[C@@H]2C(=O)C[C@@]2(C)[C@H]1CC[C@]2(O)C(=O)CO [PREDNISONE]
ABSOLUTE BASOPHIL [1]: 0 CELLS/uL
ABSOLUTE EOSINOPHIL [1]: 0 CELLS/uL
ABSOLUTE LYMPHOCYTE [1]: 13566 CELLS/uL
ABSOLUTE MONOCYTE [1]: 151.33 CELLS/uL
ABSOLUTE SEGMENTED NEUTROPHIL [1]: 1516 CELLS/uL
BASOPHIL [1]: 0%
EOSINOPHIL [1]: 0%
ERYTHROCYTE COUNT [1]: 5.56 x10E6/uL
HEMATOCRIT [1]: 34.8%
HEMOGLOBIN [1]: 13.33 G/DL
LEUKOCYTE COUNT [1]: 15.23 x10E3/uL
LYMPHOCYTE [1]: 89%
MEAN CORPUSCULAR HEMOGLOBIN [1]: 24 pg
MEAN CORPUSCULAR HEMOGLOBIN CONCENTRATION [1]: 38.33 G/DL
MEAN CORPUSCULAR VOLUME [1]: 62.6 fL
MONOCYTE [1]: 1%
NEUTROPHIL [1]: 10%
NUCLEATED RED BLOOD CELLS [1]: 0.33 /100WBC
PLATELET COUNT [1]: 1291 x10E3/uL
ALANINE AMINOTRANSFERASE [1]: 51.67 u/L
ALBUMIN [1]: 4.43 G/DL
ALKALINE PHOSPHATASE [1]: 455.67 u/L
ASPARTATE AMINOTRANSFERASE [1]: 87.33 u/L
BLOOD UREA NITROGEN [1]: 16 mg/dL
CARBON DIOXIDE [1]: 24 mmol/L
CHLORIDE [1]: 107.33 MEQ/L
CHOLESTEROL [1]: 68.67 mg/dL
CREATINE PHOSPHOKINASE [1]: 294.67 u/L
CREATININE [1]: 0.23 mg/dL
GLUCOSE [1]: 153.33 mg/dL
LACTATE DEHYDROGENASE [1]: 398.67 u/L
LIPASE [1]: 10.67 u/L
PHOSPHORUS [1]: 13.37 mg/dL
POTASSIUM [1]: 7 MEQ/L
SODIUM [1]: 149 MEQ/L
TOTAL BILIRUBIN [1]: 0.27 mg/dL
TOTAL PROTEIN [1]: 6.23 G/DL
URIC ACID [1]: 1.53 mg/dL
ABSOLUTE BASOPHIL [2]: 0 CELLS/uL
ABSOLUTE EOSINOPHIL [2]: 43 CELLS/uL
ABSOLUTE LYMPHOCYTE [2]: 10491.67 CELLS/uL
ABSOLUTE MONOCYTE [2]: 227.33 CELLS/uL
ABSOLUTE SEGMENTED NEUTROPHIL [2]: 1004.67 CELLS/uL
BASOPHIL [2]: 0%
EOSINOPHIL [2]: 0.33%
ERYTHROCYTE COUNT [2]: 6.03 x10E6/uL
HEMATOCRIT [2]: 38.43%
HEMOGLOBIN [2]: 14.23 G/DL
LEUKOCYTE COUNT [2]: 11.77 x10E3/uL
LYMPHOCYTE [2]: 89%
MEAN CORPUSCULAR HEMOGLOBIN [2]: 23.67 pg
MEAN CORPUSCULAR HEMOGLOBIN CONCENTRATION [2]: 37.03 G/DL
MEAN CORPUSCULAR VOLUME [2]: 63.87 fL
MONOCYTE [2]: 2%
NEUTROPHIL [2]: 8.67%
NUCLEATED RED BLOOD CELLS [2]: 0 /100WBC
PLATELET COUNT [2]: 1197.33 x10E3/uL
ALANINE AMINOTRANSFERASE [2]: 65 u/L
ALBUMIN [2]: 4.63 G/DL
ALKALINE PHOSPHATASE [2]: 455 u/L
ASPARTATE AMINOTRANSFERASE [2]: 98.67 u/L
BLOOD UREA NITROGEN [2]: 16.33 mg/dL
CARBON DIOXIDE [2]: 24 mmol/L
CHLORIDE [2]: 104.67 MEQ/L
CHOLESTEROL [2]: 69.33 mg/dL
CREATINE PHOSPHOKINASE [2]: 336 u/L
CREATININE [2]: 0.19 mg/dL
GLUCOSE [2]: 168.67 mg/dL
LACTATE DEHYDROGENASE [2]: 329 u/L
LIPASE [2]: 10.33 u/L
PHOSPHORUS [2]: 15.57 mg/dL
POTASSIUM [2]: 7.49 MEQ/L
SODIUM [2]: 147.77 MEQ/L
TOTAL BILIRUBIN [2]: 0.17 mg/dL
TOTAL PROTEIN [2]: 6.6 G/DL
URIC ACID [2]: 2.67 mg/dL
ABSOLUTE BASOPHIL [3]: 0 CELLS/uL
ABSOLUTE EOSINOPHIL [3]: 35 CELLS/uL
ABSOLUTE LYMPHOCYTE [3]: 7367 CELLS/uL
ABSOLUTE MONOCYTE [3]: 79.33 CELLS/uL
ABSOLUTE SEGMENTED NEUTROPHIL [3]: 1085.33 CELLS/uL
BASOPHIL [3]: 0%
EOSINOPHIL [3]: 0.33%
ERYTHROCYTE COUNT [3]: 5.88 x10E6/uL
HEMATOCRIT [3]: 37.6%
HEMOGLOBIN [3]: 13.93 G/DL
LEUKOCYTE COUNT [3]: 8.57 x10E3/uL
LYMPHOCYTE [3]: 86%
MEAN CORPUSCULAR HEMOGLOBIN [3]: 23.7 pg
MEAN CORPUSCULAR HEMOGLOBIN CONCENTRATION [3]: 37.07 G/DL
MEAN CORPUSCULAR VOLUME [3]: 64 fL
MONOCYTE [3]: 1%
NEUTROPHIL [3]: 12.67%
NUCLEATED RED BLOOD CELLS [3]: 0.33 /100WBC
PLATELET COUNT [3]: 1265.33 x10E3/uL
ALANINE AMINOTRANSFERASE [3]: 45.33 u/L
ALBUMIN [3]: 4.9 G/DL
ALKALINE PHOSPHATASE [3]: 446 u/L
ASPARTATE AMINOTRANSFERASE [3]: 84 u/L
BLOOD UREA NITROGEN [3]: 18.33 mg/dL
CARBON DIOXIDE [3]: 17 mmol/L
CHLORIDE [3]: 102 MEQ/L
CHOLESTEROL [3]: 71.33 mg/dL
CREATINE PHOSPHOKINASE [3]: 290.67 u/L
CREATININE [3]: 0.2 mg/dL
GLUCOSE [3]: 148 mg/dL
LACTATE DEHYDROGENASE [3]: 411.33 u/L
LIPASE [3]: 11.33 u/L
PHOSPHORUS [3]: 13.93 mg/dL
POTASSIUM [3]: 7.66 MEQ/L
SODIUM [3]: 147.03 MEQ/L
TOTAL BILIRUBIN [3]: 0.27 mg/dL
TOTAL PROTEIN [3]: 6.87 G/DL
URIC ACID [3]: 2.23 mg/dL
ABSOLUTE BASOPHIL [4]: 0 CELLS/uL
ABSOLUTE EOSINOPHIL [4]: 26.33 CELLS/uL
ABSOLUTE LYMPHOCYTE [4]: 7838.33 CELLS/uL
ABSOLUTE MONOCYTE [4]: 52.67 CELLS/uL
ABSOLUTE SEGMENTED NEUTROPHIL [4]: 1616 CELLS/uL
BASOPHIL [4]: 0%
EOSINOPHIL [4]: 0.33%
ERYTHROCYTE COUNT [4]: 6.38 x10E6/uL
HEMATOCRIT [4]: 39.03%
HEMOGLOBIN [4]: 14.3 G/DL
LEUKOCYTE COUNT [4]: 9.53 x10E3/uL
LYMPHOCYTE [4]: 81.33%
MEAN CORPUSCULAR HEMOGLOBIN [4]: 22.43 pg
MEAN CORPUSCULAR HEMOGLOBIN CONCENTRATION [4]: 36.63 G/DL
MEAN CORPUSCULAR VOLUME [4]: 61.17 fL
MONOCYTE [4]: 0.67%
NEUTROPHIL [4]: 17.67%
NUCLEATED RED BLOOD CELLS [4]: 0 /100WBC
PLATELET COUNT [4]: 1351.33 x10E3/uL
ALANINE AMINOTRANSFERASE [4]: 47 u/L
ALBUMIN [4]: 4.67 G/DL
ALKALINE PHOSPHATASE [4]: 399 u/L
ASPARTATE AMINOTRANSFERASE [4]: 95.33 u/L
BLOOD UREA NITROGEN [4]: 19 mg/dL
CARBON DIOXIDE [4]: 30.67 mmol/L
CHLORIDE [4]: 103.33 MEQ/L
CHOLESTEROL [4]: 49 mg/dL
CREATINE PHOSPHOKINASE [4]: 935.33 u/L
CREATININE [4]: 0.2 mg/dL
GLUCOSE [4]: 169 mg/dL
LACTATE DEHYDROGENASE [4]: 578.33 u/L
LIPASE [4]: 12.33 u/L
PHOSPHORUS [4]: 13.23 mg/dL
POTASSIUM [4]: 6.47 MEQ/L
SODIUM [4]: 147.4 MEQ/L
TOTAL BILIRUBIN [4]: 0.27 mg/dL
TOTAL PROTEIN [4]: 6.8 G/DL
URIC ACID [4]: 1.87 mg/dL
